From ChEMBL document CHEMBL1208707, “T-type calcium channel blockers: spiro-piperidine azetidines and azetidinones-optimization, design and synthesis” (Bioorg Med Chem Lett, 2010) come the findings set out here.

The nature of data set [1]: (§1) Protein binding in rat plasma. Type of data set: ADME, cell-free. To be noted: read-out: PPB (converted).
Data set [2] concerns the target T1, Voltage-dependent T-type calcium channel subunit alpha-1H (Homo sapiens, UniProt O95180). The experiment in a line: Inhibition of human CaV3.2 expressed in HEK293 cells at -100 mV membrane potential by whole cell path clamp method. Type of data set: cell-based.
Data set [3] deals with Rattus norvegicus. Nature of the data set: Plasma concentration in SNL rat at 10 mg/kg, po. In kind it is ADME, organism-based. Details: dose 10 mg/kg, route oral. To be noted: in vivo.
Data set [4] deals with T1, Voltage-dependent T-type calcium channel subunit alpha-1H. Nature of the data set: Inhibition of human CaV3.2 expressed in HEK293 cells at -100 mV membrane potential by Ionworks HT assay. Type of data set: cell-based.
In data set [5] the target is T2, Cytochrome P450 2C9 (Homo sapiens, UniProt P11712). The experiment in a line: Inhibition of CYP2C9 coincubated with compound. Type of data set: ADME. To be noted: read-out: INH.
Data set [6] addresses Transient receptor potential cation channel subfamily V member 1 (Homo sapiens) (UniProt Q8NER1). Nature of the data set: Inhibition of TRPV1 expressed in HEK293 assessed as capsaicin activation cells at 3.3 ug/mL by FLIPR assay. In kind it is cell-based.
The target of data set [7] is T2, Cytochrome P450 2C9. Nature of the data set: Inhibition of CYP2C9 preincubated with compound. Type of data set: ADME. To be noted: read-out: INH.
Data set [8] concerns the target T3, Cytochrome P450 2D6 (Homo sapiens, UniProt P10635). The experiment in a line: Inhibition of CYP2D6 preincubated with compound. Type of data set: ADME.
Data set [9] is described as follows: Permeability across human Caco-2 cells. Type of data set: ADME, cell-based. To be noted: read-out: permeability. On the technique in general: Passage across Caco-2 layers is used to estimate intestinal permeability.
The target in data set [10] is T3, Cytochrome P450 2D6. The experiment in a line: Inhibition of CYP2D6 coincubated with compound. Type of data set: ADME.
The next data set addresses Cytochrome P450 3A4 (Homo sapiens, UniProt P08684). Nature of the data set: Inhibition of CYP3A4 coincubated with compound. Type of data set: ADME. To be noted: read-out: INH.
Data set [11] can be described thus: AUC in po dosed rat. In kind it is ADME, organism-based. To be noted: plasma.
Data set [12] deals with Rattus norvegicus. The experiment in a line: In vivo inhibition of TRPV1 activation in SNL rat at 30 mg/kg, po. In kind it is functional, organism-based. Details: dose 30 mg/kg.
For data set [13], the system named is Rattus norvegicus. Nature of the data set: In vivo inhibition of TRPV1 activation in SNL rat at 30 and 60 mg/kg, po. Details: dose 60 mg/kg. In kind it is functional, organism-based.
In data set [14] the test system is Rattus norvegicus. The experiment in a line: Plasma concentration in SNL rat at 100 mg/kg, po. To be noted: in vivo. In kind it is ADME, organism-based. Details: dose 100 mg/kg, route oral.
In a further data set the test system is Plasma. The data set is described as §1. Type of data set: ADME, cell-free.
For the next data set, the species on record is Homo sapiens. The experiment in a line: Protein binding in human plasma. To be noted: read-out: PPB (converted).
In data set [15] the test system is Rattus norvegicus. The experiment in a line: In vivo inhibition of TRPV1 activation in SNL rat at 50 mg/kg, po. Type of data set: functional, organism-based. Details: dose 50 mg/kg.
Data set [16] deals with Rattus norvegicus. The experiment in a line: In vivo inhibition of TRPV1 activation in SNL rat at 10 mg/kg, po. In kind it is functional, organism-based. Details: dose 10 mg/kg.
For data set [17], the system named is Rattus norvegicus. Nature of the data set: In vivo inhibition of TRPV1 activation in SNL rat at 100 mg/kg, po. In kind it is functional, organism-based. Details: dose 100 mg/kg.

Calls of active or inactive are those of the source. The calls are words filed in the database; no cut-off is given here.

Cytochrome P450 3A4, sequence (P08684 whole entry): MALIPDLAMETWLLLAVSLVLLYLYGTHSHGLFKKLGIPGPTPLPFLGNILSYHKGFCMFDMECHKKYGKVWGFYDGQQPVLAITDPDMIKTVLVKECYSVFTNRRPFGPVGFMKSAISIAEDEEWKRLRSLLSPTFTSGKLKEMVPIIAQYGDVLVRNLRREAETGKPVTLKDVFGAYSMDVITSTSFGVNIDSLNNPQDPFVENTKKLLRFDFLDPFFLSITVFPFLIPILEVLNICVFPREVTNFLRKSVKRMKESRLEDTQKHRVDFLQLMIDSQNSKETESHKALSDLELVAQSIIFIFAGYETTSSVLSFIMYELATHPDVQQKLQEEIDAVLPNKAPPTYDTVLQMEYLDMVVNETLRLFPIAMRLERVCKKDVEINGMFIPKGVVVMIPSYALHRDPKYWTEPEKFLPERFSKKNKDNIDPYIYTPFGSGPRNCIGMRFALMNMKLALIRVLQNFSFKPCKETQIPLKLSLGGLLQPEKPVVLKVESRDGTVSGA
T1 sequence (O95180 whole entry): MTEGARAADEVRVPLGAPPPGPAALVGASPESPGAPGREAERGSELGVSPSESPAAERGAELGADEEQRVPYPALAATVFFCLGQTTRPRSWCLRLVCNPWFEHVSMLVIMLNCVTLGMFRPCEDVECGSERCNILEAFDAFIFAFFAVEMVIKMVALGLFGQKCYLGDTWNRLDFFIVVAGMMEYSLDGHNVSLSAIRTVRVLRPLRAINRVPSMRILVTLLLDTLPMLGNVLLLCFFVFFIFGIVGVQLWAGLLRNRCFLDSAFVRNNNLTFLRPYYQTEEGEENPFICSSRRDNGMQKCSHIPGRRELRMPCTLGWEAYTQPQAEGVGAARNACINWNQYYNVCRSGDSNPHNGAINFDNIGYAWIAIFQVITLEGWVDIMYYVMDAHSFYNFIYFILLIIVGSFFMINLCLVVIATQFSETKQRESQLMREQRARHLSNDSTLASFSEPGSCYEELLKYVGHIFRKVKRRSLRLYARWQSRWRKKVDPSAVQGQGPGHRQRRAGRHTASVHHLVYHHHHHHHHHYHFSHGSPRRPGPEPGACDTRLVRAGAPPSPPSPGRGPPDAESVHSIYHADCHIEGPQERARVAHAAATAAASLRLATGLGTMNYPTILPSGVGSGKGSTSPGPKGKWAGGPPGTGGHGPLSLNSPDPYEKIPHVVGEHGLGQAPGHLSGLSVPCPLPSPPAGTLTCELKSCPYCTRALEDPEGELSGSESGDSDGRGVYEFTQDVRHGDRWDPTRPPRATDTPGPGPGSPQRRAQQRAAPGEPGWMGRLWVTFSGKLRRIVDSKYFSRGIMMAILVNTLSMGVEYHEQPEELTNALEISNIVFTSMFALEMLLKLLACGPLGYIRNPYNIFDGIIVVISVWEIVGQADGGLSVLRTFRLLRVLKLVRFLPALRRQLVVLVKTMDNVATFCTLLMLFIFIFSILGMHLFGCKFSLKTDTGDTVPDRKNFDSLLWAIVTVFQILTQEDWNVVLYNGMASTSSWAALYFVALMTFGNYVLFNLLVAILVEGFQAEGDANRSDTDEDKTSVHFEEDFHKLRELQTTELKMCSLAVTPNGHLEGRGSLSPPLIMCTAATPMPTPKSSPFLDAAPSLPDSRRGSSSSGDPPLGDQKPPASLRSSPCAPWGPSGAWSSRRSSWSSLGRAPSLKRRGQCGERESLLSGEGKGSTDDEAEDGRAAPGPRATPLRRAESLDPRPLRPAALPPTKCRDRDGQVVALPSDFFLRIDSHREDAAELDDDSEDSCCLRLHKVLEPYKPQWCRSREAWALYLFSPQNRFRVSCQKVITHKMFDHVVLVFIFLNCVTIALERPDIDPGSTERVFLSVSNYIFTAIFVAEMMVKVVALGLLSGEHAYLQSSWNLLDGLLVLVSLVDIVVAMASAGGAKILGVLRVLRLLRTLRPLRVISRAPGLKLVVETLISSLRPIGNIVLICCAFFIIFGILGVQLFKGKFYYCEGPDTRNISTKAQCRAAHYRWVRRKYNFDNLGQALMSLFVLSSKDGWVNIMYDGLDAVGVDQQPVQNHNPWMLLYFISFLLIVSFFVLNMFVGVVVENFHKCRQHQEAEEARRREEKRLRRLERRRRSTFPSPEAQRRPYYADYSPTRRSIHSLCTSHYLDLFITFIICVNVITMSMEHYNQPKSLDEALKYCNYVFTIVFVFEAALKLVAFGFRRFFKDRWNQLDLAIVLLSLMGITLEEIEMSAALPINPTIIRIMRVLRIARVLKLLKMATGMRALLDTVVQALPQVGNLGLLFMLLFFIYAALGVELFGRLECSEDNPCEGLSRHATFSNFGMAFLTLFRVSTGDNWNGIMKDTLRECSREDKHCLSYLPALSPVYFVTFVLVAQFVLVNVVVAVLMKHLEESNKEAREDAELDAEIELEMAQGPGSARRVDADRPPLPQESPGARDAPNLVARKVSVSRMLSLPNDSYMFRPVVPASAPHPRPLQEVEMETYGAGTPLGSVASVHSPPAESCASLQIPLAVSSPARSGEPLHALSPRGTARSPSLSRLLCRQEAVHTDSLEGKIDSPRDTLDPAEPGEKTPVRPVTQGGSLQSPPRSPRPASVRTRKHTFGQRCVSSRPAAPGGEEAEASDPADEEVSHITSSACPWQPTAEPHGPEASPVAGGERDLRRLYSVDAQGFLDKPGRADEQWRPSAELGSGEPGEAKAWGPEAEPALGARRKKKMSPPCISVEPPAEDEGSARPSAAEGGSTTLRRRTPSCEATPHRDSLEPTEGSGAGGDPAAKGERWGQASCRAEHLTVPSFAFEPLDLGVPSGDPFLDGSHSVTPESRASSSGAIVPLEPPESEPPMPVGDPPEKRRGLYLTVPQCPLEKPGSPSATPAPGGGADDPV
Transient receptor potential cation channel subfamily V member 1 (Homo sapiens), sequence (Q8NER1 whole entry): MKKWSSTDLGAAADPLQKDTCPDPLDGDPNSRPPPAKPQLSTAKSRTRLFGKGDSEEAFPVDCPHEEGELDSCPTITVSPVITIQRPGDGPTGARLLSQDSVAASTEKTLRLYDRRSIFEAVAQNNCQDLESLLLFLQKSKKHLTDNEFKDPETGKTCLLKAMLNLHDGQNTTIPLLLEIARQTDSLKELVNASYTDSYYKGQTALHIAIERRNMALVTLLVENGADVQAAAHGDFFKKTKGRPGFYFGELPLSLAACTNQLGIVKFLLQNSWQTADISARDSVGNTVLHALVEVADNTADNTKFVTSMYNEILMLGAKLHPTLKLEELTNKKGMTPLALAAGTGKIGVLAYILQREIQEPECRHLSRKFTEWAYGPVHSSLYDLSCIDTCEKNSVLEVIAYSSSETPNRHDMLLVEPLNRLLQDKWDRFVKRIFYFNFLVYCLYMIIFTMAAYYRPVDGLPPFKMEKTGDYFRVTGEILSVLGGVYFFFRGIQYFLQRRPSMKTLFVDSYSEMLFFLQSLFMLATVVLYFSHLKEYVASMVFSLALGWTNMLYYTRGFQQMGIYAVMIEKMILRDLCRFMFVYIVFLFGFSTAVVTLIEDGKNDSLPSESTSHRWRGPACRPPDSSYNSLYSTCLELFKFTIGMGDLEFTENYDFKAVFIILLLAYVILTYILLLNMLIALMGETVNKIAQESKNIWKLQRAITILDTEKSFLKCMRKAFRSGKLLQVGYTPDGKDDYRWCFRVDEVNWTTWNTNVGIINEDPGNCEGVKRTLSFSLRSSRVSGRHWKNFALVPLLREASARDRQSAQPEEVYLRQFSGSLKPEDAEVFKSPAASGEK
T2 sequence (P11712 whole entry): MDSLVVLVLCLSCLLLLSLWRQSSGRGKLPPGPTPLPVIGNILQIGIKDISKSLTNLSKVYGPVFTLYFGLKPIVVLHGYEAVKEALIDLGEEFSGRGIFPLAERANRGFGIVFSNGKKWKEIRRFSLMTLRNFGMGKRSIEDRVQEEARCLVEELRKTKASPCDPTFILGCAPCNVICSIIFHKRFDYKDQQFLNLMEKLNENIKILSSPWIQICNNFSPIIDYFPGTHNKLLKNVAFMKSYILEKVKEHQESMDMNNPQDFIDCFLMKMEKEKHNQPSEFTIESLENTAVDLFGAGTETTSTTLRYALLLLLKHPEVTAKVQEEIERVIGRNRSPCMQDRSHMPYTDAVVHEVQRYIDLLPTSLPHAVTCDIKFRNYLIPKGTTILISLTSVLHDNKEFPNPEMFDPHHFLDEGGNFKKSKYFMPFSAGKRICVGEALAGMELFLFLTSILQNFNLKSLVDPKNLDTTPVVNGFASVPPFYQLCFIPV
T3 sequence (P10635 whole entry): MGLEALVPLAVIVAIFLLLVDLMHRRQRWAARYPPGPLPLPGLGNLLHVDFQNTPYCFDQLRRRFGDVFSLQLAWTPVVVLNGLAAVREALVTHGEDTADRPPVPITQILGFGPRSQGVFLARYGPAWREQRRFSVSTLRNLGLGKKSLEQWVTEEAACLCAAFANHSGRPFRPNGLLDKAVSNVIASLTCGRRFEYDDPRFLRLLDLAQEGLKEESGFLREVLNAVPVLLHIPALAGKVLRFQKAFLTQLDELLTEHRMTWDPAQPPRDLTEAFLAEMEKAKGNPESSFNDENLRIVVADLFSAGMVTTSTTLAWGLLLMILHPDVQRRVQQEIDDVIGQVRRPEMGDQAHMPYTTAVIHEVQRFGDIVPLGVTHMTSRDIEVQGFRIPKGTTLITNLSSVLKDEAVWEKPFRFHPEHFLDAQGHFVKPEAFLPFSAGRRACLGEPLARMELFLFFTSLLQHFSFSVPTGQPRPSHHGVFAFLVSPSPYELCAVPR

Regarding `O=C(Nc1cccc(C(F)(F)F)c1)N1CCC2(CC1)C(=O)N(c1ccc(F)c(F)c1)C2c1ccccn1` (stereo in doubt; 411b), the fraction unbound in data set [1] is 0.005. For the same compound, the IC50 stood at 283 nM in [2] and 176 nM in data set [4]. Moreover, in the data set on Rattus norvegicus [3], the concentration was 2.1 µM.
As usually defined, the inhibition is the change of the read-out against control, counted positive when it falls. On to `CC(C)N1CC2(CCN(C(=O)Nc3ccc(F)c(F)c3)CC2)C1c1ccc(Cl)cc1` (stereo not drawn), for which the IC50 at Cytochrome P450 2C9 [5] is over 30000 nM; at Cytochrome P450 2C9 [7], over 30000 nM; in data set [2] it was 340 nM; in data set [4], 174 nM; on Cytochrome P450 3A4 it was over 30000 nM. For the same compound, the inhibition in data set [6] turned out to be 64%. The INH on Cytochrome P450 2D6 [8] was found to be 8.1 µM; at Cytochrome P450 2D6 [10] it was 0.9 µM. In [9], the Papp turned out to be 18.7 ×10⁻⁶ cm/s.
For `O=C1N(c2ccc(F)c(Cl)c2)C(c2ccccn2)C12CCN(c1nc3cc(F)c(Cl)cc3[nH]1)CC2` (stereo not drawn), in data set [1], the fraction unbound is 0.002. Besides, the inhibition in data set [6] is 8.6%. Moreover, the IC50 in data set [2] is 84 nM; in data set [4], 60 nM.
For orientation: AUC means the area under the concentration-time curve, a measure of exposure. With `O=C1N(c2ccc(F)c(Cl)c2)C(c2ccccn2)C12CCN(c1nc3ccc(Cl)cc3[nH]1)CC2` (stereo not drawn), the inhibition in data set [6] is 86.2%. Moreover, the IC50 in data set [2] is 71 nM; in data set [4], 78 nM. The compound further showed an AUC in data set [11] of 41.2 µM·h.
Regarding `O=C(Nc1cc(F)cc(F)c1)N1CCC2(CC1)C(=O)N(c1cccc(Cl)c1)C2c1ccccn1` (stereo in doubt; 44b) [listing 1 of 2 here], in data set [6], the inhibition came to 36%. Moreover, the inhibition result in the data set with Rattus norvegicus [12] and in the data set with Rattus norvegicus [13] was “inactive” each time.
Consider `O=C(Nc1ccc(F)c(F)c1)N1CCC2(CC1)C(=O)N(c1ccc(F)c(Cl)c1)C2c1ccccn1` (stereo in doubt; 40a), for which the fraction unbound in data set [1] was 0.004. In addition, the IC50 is 17700 nM in data set [2] and 41 nM in data set [4].
Take `CC[C@H](C)[C@H](NC(=O)N1CCC2(CC1)CN(C(C)C)C2c1ccc(Cl)cc1)C(=O)OC` (stereo in doubt; 2): the IC50 was over 30000 nM at Cytochrome P450 2C9 [5]; over 30000 nM on Cytochrome P450 2C9 [7]; 123 nM in [2]; 104 nM in data set [4]; over 30000 nM on Cytochrome P450 3A4. In addition, the INH was 8.1 µM on Cytochrome P450 2D6 [8] and 0.9 µM at Cytochrome P450 2D6 [10]. Besides, the Papp in data set [9] was 13.4 ×10⁻⁶ cm/s.
On to `O=C(Nc1cccc(C(F)(F)F)c1)N1CCC2(CC1)C(=O)N(c1ccc(F)c(F)c1)C2c1ccccn1` (stereo in doubt; 41a), for which, in the data set on Rattus norvegicus [12], the inhibition entry was “inactive”.
Regarding `CC(C)N1CC2(CCN(C(=O)Nc3cc(F)cc(F)c3)CC2)C1c1ccc(Cl)cc1` (stereo not drawn), the IC50 is over 30000 nM on Cytochrome P450 2C9 [5]; over 30000 nM on Cytochrome P450 2C9 [7]; 328 nM in data set [2]; 138 nM in data set [4]; over 30000 nM on Cytochrome P450 3A4. In [6], the inhibition was 19.1%. For the same compound, the INH at Cytochrome P450 2D6 [8] was found to be 3.6 µM; on Cytochrome P450 2D6 [10], 0.9 µM. Further, the Papp in [9] is over 7.34 ×10⁻⁶ cm/s.
The compound `O=C1N(c2ccc(F)c(Cl)c2)C(c2ccccn2)C12CCN(c1nc3cc(F)c(C(F)(F)F)cc3[nH]1)CC2` (stereo in doubt; 52a) [listing 1 of 2 here] had a concentration with Rattus norvegicus [14] of 3.4 µM. Further, the IC50 in data set [4] was 29 nM. The area under the curve (AUC) in [11] amounted to 0.814 µM·h.
Compound `O=C(Nc1ccc(F)c(F)c1)N1CCC2(CC1)C(=O)N(c1cccc(Cl)c1)C2c1ccccn1` (stereo in doubt; 42b) returned a PPB with Plasma of 99.9%. Moreover, the IC50 in data set [4] amounted to 652 nM.
For the compound `N#Cc1cccc(NC(=O)N2CCC3(CC2)C(=O)N(c2cccc(Cl)c2)C3c2ccccn2)c1` (stereo in doubt; 43a), the PPB with Plasma amounted to 99.2%. In addition, the fraction unbound in the data set listed under Homo sapiens was 0.013. The IC50 in data set [4] turned out to be 57 nM.
Take `O=C(Nc1ccc(F)c(F)c1)N1CCC2(CC1)C(=O)N(c1cccc(Cl)c1)C2c1ccccn1` (stereo in doubt; 42a) [listing 1 of 2 here]: in data set [6], the inhibition was found to be 82.7%. Further, the inhibition result in the data set on Rattus norvegicus [12] is “inactive”.
As for `CN1CC2(CCN(C(=O)Nc3cc(F)cc(F)c3)CC2)C1c1ccc(F)cc1` (racemic), in [1], the fraction unbound is 0.05. The inhibition in data set [6] amounted to 21.8%. In data set [4], the IC50 amounted to 410 nM.
On to `O=C(Nc1cc(F)cc(F)c1)N1CCC2(CC1)C(=O)N(c1ccc(F)c(Cl)c1)C2c1ccccn1` (stereo in doubt; 39b), for which the inhibition entry in the data set on Rattus norvegicus [15] and in the data set on Rattus norvegicus [16] was “inactive” throughout.
`O=C(Nc1cc(F)cc(F)c1)N1CCC2(CC1)C(=O)N(c1cccc(Cl)c1)C2c1ccccn1` (stereo in doubt; 44b) [listing 2 of 2 here] displayed a PPB with Plasma of 99.5%. Besides, the IC50 in [4] was 200 nM.
`O=C(Nc1cc(F)cc(F)c1)N1CCC2(CC1)C(=O)N(c1cccc(Cl)c1)C2c1ccccn1` (stereo in doubt; 44a) returned a PPB in the data set with Plasma of 98.9%. Also, in the data set listed under Homo sapiens, the fraction unbound was 0.003. The values for the IC50 in data set [2] and in [4] were 3490 nM and 18 nM, respectively.
Regarding `O=C1N(c2ccc(F)c(Cl)c2)C(c2ccccn2)C12CCN(c1nc3cc(F)c(C(F)(F)F)cc3[nH]1)CC2` (stereo in doubt; 52b), the inhibition in data set [6] is 59.8%. Also, the inhibition result in the data set with Rattus norvegicus [16] was “inactive”.
As to `O=C(Nc1cc(F)cc(F)c1)N1CCC2(CC1)C(=O)N(c1ccc(F)c(Cl)c1)C2c1ccccn1` (stereo in doubt; 39a) [listing 1 of 2 here], the inhibition result in the data set on Rattus norvegicus [17] was “inactive”.
As for `O=C1N(c2ccc(F)c(Cl)c2)C(c2ccccn2)C12CCN(c1nc3cc(F)c(C(F)(F)F)cc3[nH]1)CC2` (stereo in doubt; 52a) [listing 2 of 2 here], in [6], the inhibition worked out at 92%. In addition, in the data set on Rattus norvegicus [16], the inhibition result was “inactive”.
`O=C(Nc1cc(F)cc(F)c1)N1CCC2(CC1)CN(c1ccc(F)c(Cl)c1)C2c1ccccn1` (stereo in doubt; 38a): the PPB with Plasma is 99.9%. For the same compound, the IC50 in data set [2] stood at 41 nM; in [4] it was 60 nM.
Turning to `O=C(Nc1cc(F)cc(F)c1)N1CCC2(CC1)C(=O)N(c1ccc(F)c(Cl)c1)C2c1ccccn1` (stereo in doubt; 39a) [listing 2 of 2 here], the fraction unbound in data set [1] was 0.004; in the data set filed under Homo sapiens, 0.001. In addition, the figures for the IC50 in data set [2] and in [4] were 42 nM and 4 nM, respectively. For the same compound, in the data set with Rattus norvegicus [14], the concentration is 3.4 µM.
Compound `O=C(Nc1ccc(F)c(F)c1)N1CCC2(CC1)C(=O)N(c1cccc(Cl)c1)C2c1ccccn1` (stereo in doubt; 42a) [listing 2 of 2 here] returned a PPB with Plasma of 98.8%. Also, in the data set filed under Homo sapiens, the fraction unbound is 0.001.
`N#Cc1cccc(NC(=O)N2CCC3(CC2)C(=O)N(c2cccc(Cl)c2)C3c2ccccn2)c1` (stereo in doubt; 43b): in data set [6], the inhibition was 25%. Also, in the data set on Rattus norvegicus [12], the inhibition entry was “inactive”.
